Entries after “also recorded” stand apart in the source; their conditions may differ.
What was measured:
[1] = tested on: p21-35 (SEQ ID NO:3)-specific CD4+ T cell clone; assay: Proliferation of Der p2 p21-35-specific CD4+ T cell clone with peptide-loaded antigen-presenting cells (3H-thymidine incorporation); format: cell-based, BALB/c mice; details: peptide 0.1 μM loaded on T cell-depleted mitomycin C-treated splenocytes; compared with p21-35 wildtype sequence (SEQ ID NO:3); 48 h + 18 h 3H-thymidine
[2] = tested on: B cells expressing the BO2C11 BCR; assay: FACS for BO2C11 BCR on circulating, splenic and bone marrow B cells of immunized mice; format: in vivo
Protocol: A mouse strain was created which expresses the BO2C11 molecule as a B cell receptor. […] Mice were then bled and tested for the presence of antibodies recognizing the peptide of SEQ ID NO:10 and the BO2C11 antibody, as assess by direct binding ELISA. […] Furthermore, the presence of the BO2C11 BCR on circulating, splenic and bone marrow B cells was evaluated by FACS using an anti-human Fc-gamma antibody.

[3] = Direct binding ELISA of antibodies in blood of immunized BO2C11 BCR mice; format: in vivo; details: mice immunized with 50 μg peptide on alum on 4 occasions at 10-day intervals
Source text: (§1) A mouse strain was created which expresses the BO2C11 molecule as a B cell receptor. […] Mice were then bled and tested for the presence of antibodies recognizing the peptide of SEQ ID NO:10 and the BO2C11 antibody, as assess by direct binding ELISA.

BO2C11 antibody = assay: as above; format: in vivo; details: mice immunized with 50 μg peptide on alum on 4 occasions at 10-day intervals
Source text: as §1

CD4+ T cells = assay: Proliferation of CD4+ T cells stimulated with ALK peptide-loaded dendritic cells (tritiated thymidine incorporation); format: cell-based, C57BL/6 mice; details: four cycles of stimulation with 20 μg peptide; restimulation with 1 μM or 10 μM peptide of SEQ ID NO:14; compared with stimulation by SEQ ID NO:14
G121 CD4+ T cell clone = assay: FACS detection of CFSE-labeled G121 CD4+ T cell clone in immunized mice; format: in vivo, BALB/c mice; details: one day after i.v. injection of 200,000 cells per mouse in immunized mice
G121 TCR = assay: FACS detection of serum antibodies to G121 TCR in immunized mice; format: in vivo, BALB/c mice; details: G121 cells incubated with serum dilution, then FITC-labeled anti-mouse Fcgamma antibody
[4] = tested on: macrophages presenting Ag85b derived epitopes; format: cell-based, C57BL/6 mice
[5] = tested on: ALK-specific CD4+ T cells; assay: Activation of ALK-specific CD4+ T cells
[6] = tested on: NPM-ALK tumor cells (R80 NPM-ALK cells, H-2b-restricted); assay: Growth of NPM-ALK tumor in mice preimmunized with peptide on alum; format: in vivo, C57BL/6 mice; details: 50 μg peptide on alum, 4 times at 10-day intervals, before s.c. inoculation of 2×10^6 tumor cells; difference at day 20 p<0.008 (Mann-Whitney U test)

AHGSEPCIIHRGKPF (Der p2 amino acids 21-35 with mutation c21A) [SEQ ID NO:4, p21-35 peptide with cysteine in P(-4) substituted by alanine]
reduction of the proliferative response of the specific T cell clone [1]: 70%

CAVY YCAVPDPDA FDI (CAVYYCAVPDPDAFDI; amino acids 111-125 of VH of human anti-factor VIII antibody BO2C11 preceded by cyteine) [SEQ ID NO:11]
B cells expressing the transgenic BCR in circulation, spleen or bone marrow (FACS, anti-human Fc-gamma antibody) [2]: no B cells expressing the transgenic BCR | antibodies to the peptide of SEQ ID 10 (direct binding ELISA) [3]: High concentrations of antibodies | antibodies to the BO2C11 antibody (direct binding ELISA) (BO2C11 antibody): High concentrations of antibodies

CGG WTGPGAGPR (CGGWTGPGAGPR; amino acids 1544-1555 of ALK protein preceded by cysteine) [SEQ ID NO:15, ALK peptide with a single cysteine added at position 1544]
proliferation rate of CD4+ T cells (incorporation of tritiated thymidine) (CD4+ T cells): significantly increased

CQTA VYFCASSER TGG (CQTAVYFCASSERTGG; amino acids 103-117 of VH of anti-Der p2 CD4+ T-cell clone G121 preceded by cysteine) [SEQ ID NO:13]
residual CFSE-labeled G121 cells in peripheral blood or spleen (FACS) (G121 CD4+ T cell clone): no residual G121 cells | antibodies to G121 TCR in serum of immunized mice (FACS) (G121 TCR): contains antibodies to G121 TCR

CSWE YWGAQLNAM [SEQ ID NO:7]
macrophage lysis (51Cr release) [4]: significant degree of macrophage lysis

YCTQDPDVINTA (ALK-epitope) [SEQ ID NO:5]
activation of ALK-specific (class II-restricted) CD4+ T cells [5]: boost the activation; also recorded: increased activation properties | tumor growth in preimmunized mice versus control group not preimmunized [6]: very much reduced

YWGAQLNAM [SEQ ID NO:6, reference compound]
macrophage lysis (51Cr release) [4]: not
